Reference: patent US8003648B2, “Heterocyclic GPR40 modulators” (Amgen Inc., priority 2006, dated 2011)

target: T1, human GPR40 (Homo sapiens, UniProt O14842); assay: Cell-based aequorin assay using human GPR40; settings: activation of human GPR40; CHO cells stably transfected with GPR40 and Aequorin; 0.01% HSA; aequorin luminescence
T1 construct: host or cells: CHO cells
Procedure: Cell-based aequorin assays were employed to characterize the modulatory activity of compounds on the GPR40 signaling pathway. In an exemplary assay, CHO cells were stably transfected with both GPR40 and Aequorin (Euroscreen). Cells were detached from the tissue culture dish with 2 mL of trypsin (0.25% (w/v)). Trypsinization was halted with 28 mL of Hanks Buffered Salt Solution containing 20 mM Hepes (H/HBSS) and 0.01% fatty acid-free human serum albumin (HSA). Coelantrazine is added to 1 ug/mL, and the cells were incubated for 2 hours at room temperature. Compounds were dissolved in DMSO for preparation of 10 mM stock solutions. Compounds were diluted in H/HBSS containing 0.01% HSA. Serial dilutions of the test compounds were prepared to determine dose response.
Aequorin luminescence measurements were made using an EG&G Berthold 96-well luminometer, and the response was measured over a 20 second interval after cells and compounds were mixed. The maximum relative light units was plotted to determine dose response. The EC50 (effective concentration to reach 50% maximal response) was determined from the dose response plot.
Table 1 presents representative data (EC50 values) obtained for exemplary compounds of the invention for the activation of human GPR40. […]

T1 sequence (O14842 whole entry): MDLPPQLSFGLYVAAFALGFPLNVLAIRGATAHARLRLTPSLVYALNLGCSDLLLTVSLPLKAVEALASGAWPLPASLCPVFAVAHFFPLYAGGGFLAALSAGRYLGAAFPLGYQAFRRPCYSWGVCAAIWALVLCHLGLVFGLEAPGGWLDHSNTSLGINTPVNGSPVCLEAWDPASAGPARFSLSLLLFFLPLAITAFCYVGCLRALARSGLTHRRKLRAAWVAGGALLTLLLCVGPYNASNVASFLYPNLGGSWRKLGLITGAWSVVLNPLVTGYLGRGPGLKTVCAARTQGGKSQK

Row | Compound | EC50
1 | O=C(O)C[C@@H](c1ccc(OCc2nc(-c3ccc(Cl)cc3)no2)cc1)c1ccon1 [Example 69] | 1000 to 10000 nM
2 | CC(C)(C)c1ccc(-c2noc(COc3ccc([C@H](CC(=O)O)c4ccon4)cc3)n2)cc1 [Example 70] | 100 to 1000 nM
3 | O=C(O)C[C@@H](c1ccc(OCc2nc(-c3c(Cl)cccc3Cl)no2)cc1)c1ccon1 [Example 71] | 1000 to 10000 nM
4 | Cc1nc(-c2cccc(C(F)(F)F)c2)sc1COc1ccc([C@H](CC(=O)O)c2ccon2)cc1 [Example 72, (3S)-3-(Isoxazol-3-yl)-3-(4-((4-methyl-2-(3-(trifluoromethyl)phenyl)thiazol-5-yl)methoxy)phenyl)propanoic acid] | 10 to 100 nM
5 | CCCCOc1ccc(-c2nc(C)c(COc3ccc([C@H](CC(=O)O)c4ccon4)cc3)s2)cc1F [Example 75, (3S)-3-(4-((2-(4-Butoxy-3-fluorophenyl)-4-methylthiazol-5-yl)methoxy)phenyl)-3-(isoxazol-3-yl)propanoic acid] | 10 to 100 nM
6 | Cc1nc(-c2ccc(C(C)(C)C)cc2)sc1COc1ccc([C@H](CC(=O)O)c2ccon2)cc1 [Example 76] | 10 to 100 nM
7 | CCCCc1ccc(-c2nc(C)c(COc3ccc([C@H](CC(=O)O)c4ccon4)cc3)s2)cc1 [Example 77] | 10 to 100 nM

Second part, the compound after the results:

Row | EC50 | Compound
8 | 10 to 100 nM | Cc1nc(-c2ccc(CC(C)C)cc2)sc1COc1ccc([C@H](CC(=O)O)c2ccon2)cc1 [Example 78]
9 | 10 to 100 nM | CCCCOc1ccc(-c2nc(C)c(COc3ccc([C@H](CC(=O)O)c4ccon4)cc3)s2)cc1Cl [Example 79]
10 | 10 to 100 nM | CCCOc1c(C)cc(-c2nc(C)c(COc3ccc([C@H](CC(=O)O)c4ccon4)cc3)s2)cc1C [Example 80]
11 | 10 to 100 nM | Cc1nc(-c2ccc(OC(C)C)c(Cl)c2)sc1COc1ccc([C@H](CC(=O)O)c2ccon2)cc1 [Example 81]
12 | 1000 to 10000 nM | CC12CCC(c3nc(COc4ccc([C@H](CC(=O)O)c5ccon5)cc4)cnc31)C2(C)C (stereo partly shown) [Example 82]
13 | 1000 to 10000 nM | CC12CCC(c3ncc(COc4ccc([C@H](CC(=O)O)c5ccon5)cc4)nc31)C2(C)C (stereo partly shown) [Example 83]
